Patent US20250195521A1 (Revolution Medicines, Inc., priority 2020, published 2025)
Several values for one entry are separate records, joined by “and”; a condition that tells them apart may be missing. Identical values can stand only once. Like-named read-outs stand apart in the source and are kept apart here.

Columns and labels:
[1] = system: Capan-1 cells (K-Ras G12V); assay: CellTiter-Glo cell viability, Capan-1; type: cell-based, human; conditions: Homo sapiens, CAPAN-1, 120 h, read-out: Capan-1 Cell Viability IC50
Method: Note—The following protocol describes a procedure for monitoring cell viability of K-Ras mutant cancer cell lines in response to a compound of the invention. Other RAS isoforms may be employed, though the number of cells to be seeded will vary based on cell line used.
Test compounds (132.5 nl) were directly dispensed into the assay plates containing cells. […] On day 5, assay plates and their contents were equilibrated to room temperature for approximately 30 minutes. […] Luminescence was measured using the PerkinElmer Enspire. Data were normalized by the following: (Sample signal/Avg. DMSO)*100. The data were fit using a four-parameter logistic fit.

KRAS G13D = KRAS G13D (Homo sapiens (Human), UniProt P01116+P62937, G13D); assay: Ras-Raf disruption/FRET/MOA assay (BRAF RBD, Cyclophilin A); type: biochemical
Method: (§1) Compound is present in plate wells as a 10-point 3-fold dilution series starting at a final concentration of 30 μM. After incubation at 25° C. for 3 hours, a mixture of Anti-His Eu—W1024 and anti-GST allophycocyanin is then added to assay sample wells at final concentrations of 10 nM and 50 nM, respectively, and the reaction incubated for an additional 1.5 hours. […] Compounds that facilitate disruption of a Ras: RAF complex are identified as those eliciting a decrease in the TR-FRET ratio relative to DMSO control wells.
(§2) Disruption of B-Raf Ras-Binding Domain (BRAF^RBD) Interaction with K-Ras by Compounds of the Invention (Also Called a FRET Assay or an MOA Assay)
(§3) Note—The following protocol describes a procedure for monitoring disruption of K-Ras G12C (GMP-PNP) binding to BRAF^RBD by a compound of the invention. This protocol may also be executed substituting other Ras proteins or nucleotides.
(§4) The purpose of this biochemical assay was to measure the ability of test compounds to facilitate ternary complex formation between a nucleotide-loaded K-Ras isoform and Cyclophilin A; the resulting ternary complex disrupts binding to a BRAF^RBD construct, inhibiting K-Ras signaling through a RAF effector. Data is reported as IC50 values.
(§5) In assay buffer containing 25 mM HEPES pH 7.3, 0.002% Tween20, 0.1% BSA, 100 mM NaCl and 5 mM MgCl2, tagless Cyclophilin A, His6-K-Ras-GMPPNP, and GST-BRAF^RBD were combined in a 384-well assay plate at final concentrations of 25 μM, 12.5 nM and 50 nM, respectively. Compound was present in plate wells as a 10-point 3-fold dilution series starting at a final concentration of 30 μM. After incubation at 25° C. for 3 hours, a mixture of Anti-His Eu—W1024 and anti-GST allophycocyanin was then added to assay sample wells at final concentrations of 10 nM and 50 nM, respectively, and the reaction incubated for an additional 1.5 hours. […] Compounds that facilitate disruption of a K-Ras: RAF complex were identified as those eliciting a decrease in the TR-FRET ratio relative to DMSO control wells.

KRAS G12D = KRAS G12D (Homo sapiens (Human), UniProt P01116+P62937, G12D); assay: as above; type: biochemical
Method: as §1, §2, §3, §4, §5

NRAS G12C = NRAS G12C (Homo sapiens (Human), UniProt P01111+P62937, G12C); assay: as above; type: biochemical
Method: as §1, §2, §3, §4, §5

KRAS WT = KRAS WT (Homo sapiens (Human), UniProt P01116+P62937); assay: as above; type: biochemical
Method: as §1, §2, §3, §4, §5

KRAS G12V = KRAS G12V (Homo sapiens (Human), UniProt P01116+P62937, G12V); assay: as above; type: biochemical
Method: as §1, §2, §3, §4, §5

KRAS G12S = KRAS G12S (Homo sapiens (Human), UniProt P01116+P62937, G12S); assay: as above; type: biochemical
Method: as §1, §2, §3, §4, §5

KRAS G13C = KRAS G13C (Homo sapiens (Human), UniProt P01116+P62937, G13C); assay: as above; type: biochemical
Method: as §1, §2, §3, §4, §5

KRAS G12C = KRAS G12C (Homo sapiens (Human), UniProt P01116+P62937, G12C); assay: as above; type: biochemical
Method: as §1, §2, §3, §4, §5

[2] = system: K-Ras G12C (NCI-H358 cells); assay: Potency assay: pERK in NCI-H358 cells; type: cell-based, human; conditions: Homo sapiens; NCI-H358 cells, 4 hours; read-out: pERK EC50 (H358 KRAS G12C)
How it was run: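 Cells plated the day before were exposed for 4 h at 37° C, 5% CO2 to a 10-point, 3-fold DMSO dilution series (10 mM top stock), in duplicate. Phospho-ERK was read by AlphaLISA SureFire Ultra or by In-Cell Western with DRAQ5 DNA stain, and IC50 came from a 4-parameter sigmoidal fit.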

[3] = read-out: KRAS G13D FRET data IC50
[4] = read-out: NRAS G12C FRET data IC50
[5] = read-out: KRAS WT FRET data IC50

Sequence of KRAS G12D (P01116 other isoform, or with tags, fused parts or gaps G12D): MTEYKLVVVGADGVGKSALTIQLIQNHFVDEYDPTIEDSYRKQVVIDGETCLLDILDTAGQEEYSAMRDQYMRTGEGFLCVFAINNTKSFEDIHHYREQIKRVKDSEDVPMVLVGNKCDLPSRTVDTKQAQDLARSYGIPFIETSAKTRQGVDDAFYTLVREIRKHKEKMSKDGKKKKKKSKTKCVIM
Sequence of KRAS G12D (P62937 whole entry): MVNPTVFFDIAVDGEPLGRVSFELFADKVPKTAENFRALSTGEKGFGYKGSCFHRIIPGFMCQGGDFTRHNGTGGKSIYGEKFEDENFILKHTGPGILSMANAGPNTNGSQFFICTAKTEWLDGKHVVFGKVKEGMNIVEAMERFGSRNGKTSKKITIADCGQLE
Sequence of KRAS WT (P01116 other isoform, or with tags, fused parts or gaps): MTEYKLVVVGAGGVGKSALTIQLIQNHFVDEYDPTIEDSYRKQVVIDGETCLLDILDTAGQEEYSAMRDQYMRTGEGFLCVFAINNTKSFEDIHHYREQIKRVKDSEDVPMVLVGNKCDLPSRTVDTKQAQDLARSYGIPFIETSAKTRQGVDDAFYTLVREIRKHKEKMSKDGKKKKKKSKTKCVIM
Sequence of KRAS WT (P62937 whole entry): as the sequence (P62937 whole entry) above
Sequence of KRAS G12C (P01116-2 other isoform, or with tags, fused parts or gaps G12C): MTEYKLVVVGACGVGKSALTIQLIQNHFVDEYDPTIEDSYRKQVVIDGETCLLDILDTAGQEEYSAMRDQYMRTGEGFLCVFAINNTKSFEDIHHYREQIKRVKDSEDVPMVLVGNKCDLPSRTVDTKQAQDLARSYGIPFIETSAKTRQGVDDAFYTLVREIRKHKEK
Sequence of KRAS G12C (P62937 whole entry): as the sequence (P62937 whole entry) above
Sequence of NRAS G12C (P01111 whole entry G12C): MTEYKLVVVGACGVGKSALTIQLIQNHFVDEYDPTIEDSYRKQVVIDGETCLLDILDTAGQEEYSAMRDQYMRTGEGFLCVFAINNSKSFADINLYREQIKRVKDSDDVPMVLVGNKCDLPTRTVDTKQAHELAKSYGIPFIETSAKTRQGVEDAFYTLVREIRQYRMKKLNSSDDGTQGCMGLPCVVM
Sequence of NRAS G12C (P62937 whole entry): as the sequence (P62937 whole entry) above
Sequence of KRAS G13D (P01116 other isoform, or with tags, fused parts or gaps G13D): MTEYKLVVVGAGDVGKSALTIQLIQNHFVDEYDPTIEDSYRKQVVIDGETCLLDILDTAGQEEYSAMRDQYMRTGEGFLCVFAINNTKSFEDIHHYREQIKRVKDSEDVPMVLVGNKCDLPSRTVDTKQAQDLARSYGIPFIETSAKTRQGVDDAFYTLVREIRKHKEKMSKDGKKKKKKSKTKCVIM
Sequence of KRAS G13D (P62937 whole entry): as the sequence (P62937 whole entry) above
Sequence of KRAS G13C (P01116 other isoform, or with tags, fused parts or gaps G13C): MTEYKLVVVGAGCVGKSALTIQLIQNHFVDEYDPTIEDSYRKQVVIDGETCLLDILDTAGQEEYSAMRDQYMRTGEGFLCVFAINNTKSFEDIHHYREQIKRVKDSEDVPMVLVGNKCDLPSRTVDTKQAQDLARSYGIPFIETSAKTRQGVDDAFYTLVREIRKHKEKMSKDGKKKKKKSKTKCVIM
Sequence of KRAS G13C (P62937 whole entry): as the sequence (P62937 whole entry) above
Sequence of KRAS G12V (P01116 other isoform, or with tags, fused parts or gaps G12V): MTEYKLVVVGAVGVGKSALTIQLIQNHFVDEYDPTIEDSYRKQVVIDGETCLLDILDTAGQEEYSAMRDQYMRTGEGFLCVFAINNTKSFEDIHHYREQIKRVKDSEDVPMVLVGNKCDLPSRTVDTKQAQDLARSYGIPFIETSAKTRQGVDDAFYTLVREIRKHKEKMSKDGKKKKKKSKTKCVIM
Sequence of KRAS G12V (P62937 whole entry): as the sequence (P62937 whole entry) above
Sequence of KRAS G12S (P01116 other isoform, or with tags, fused parts or gaps G12S): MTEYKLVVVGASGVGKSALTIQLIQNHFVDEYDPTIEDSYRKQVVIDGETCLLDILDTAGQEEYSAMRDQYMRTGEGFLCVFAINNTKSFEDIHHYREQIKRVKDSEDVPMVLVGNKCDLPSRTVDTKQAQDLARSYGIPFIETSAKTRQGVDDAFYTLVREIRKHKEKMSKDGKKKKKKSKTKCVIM
Sequence of KRAS G12S (P62937 whole entry): as the sequence (P62937 whole entry) above

Compound	IC50 ([1]; K-Ras G12V, 5-day treatment)	IC50 (KRAS G13D; [3])	IC50 (KRAS G12D; read-out: KRAS G12D FRET IC50)	IC50 (NRAS G12C; [4])	IC50 (KRAS WT; [5])	IC50 (KRAS G12V; read-out: KRAS G12V FRET IC50)	IC50 (KRAS G12S; read-out: KRAS G12S FRET IC50)	IC50 (KRAS G13C; read-out: KRAS G13C FRET IC50)	IC50 (KRAS G12C; read-out: KRAS G12C FRET IC50)	EC50 [2]	IC50 [1]	IC50 (KRAS G13D; KRAS G13D FRET data IC50)	IC50 (KRAS G12D; KRAS G12D FRET IC50)	IC50 (NRAS G12C; NRAS G12C FRET data IC50)	IC50 (KRAS WT; KRAS WT FRET data IC50)	IC50 (KRAS G12V; KRAS G12V FRET IC50)	IC50 (KRAS G12S; KRAS G12S FRET IC50)	IC50 (KRAS G13C; KRAS G13C FRET IC50)	IC50 (KRAS G12C; KRAS G12C FRET IC50)
CCn1c(-c2cnccc2COC)c2c3cc(ccc31)-c1cc(O)cc(c1)C[C@H](NC(=O)[C@H](C(C)C)N(C)C(=O)[C@@H]1CNC[C@@H]1C(F)(F)F)C(=O)N1CCC[C@H](N1)C(=O)OCC(C)(C)C2 [Compound A79]	> 10000 nM	100 to 1000 nM	100 to 1000 nM	100 to 1000 nM	100 to 1000 nM	1000 to 10000 nM	100 to 1000 nM	100 to 1000 nM	100 to 1000 nM										
CCn1c(-c2cccnc2[C@H](C)OC)c2c3cc(ccc31)-c1csc(n1)C[C@H](NC(=O)[C@H](C(C)C)N(C)C(=O)[C@H]1CCN(CCO)C1)C(=O)N1CCC[C@H](N1)C(=O)OCC(C)(C)C2 [Compound A110]	> 10000 nM	1000 to 10000 nM	1000 to 10000 nM	1000 to 10000 nM	1000 to 10000 nM	> 10000 nM	1000 to 10000 nM	1000 to 10000 nM	1000 to 10000 nM										
CCn1c(-c2cccnc2[C@H](C)OC)c2c3cc(ccc31)-c1cc(O)cc(c1)C[C@H](NC(=O)[C@H](C(C)C)N(C)C(=O)C1CC13CNC3)C(=O)N1CCC[C@H](N1)C(=O)OCC(C)(C)C2 (stereo partly shown) [Compound A140]	> 10000 nM	10 to 100 nM	10 to 100 nM	10 to 100 nM	10 to 100 nM	10 to 100 nM	10 to 100 nM	10 to 100 nM	10 to 100 nM										
CCn1c(-c2cccnc2[C@H](C)OC)c2c3cc(ccc31)-c1cc(O)cc(c1)C[C@H](NC(=O)[C@H](C(C)C)N(C)C(=O)[C@@H]1C[C@@H]1F)C(=O)N1CCC[C@H](N1)C(=O)OCC(C)(C)C2 [Compound A160]	100 to 1000 nM	100 to 1000 nM	100 to 1000 nM	10 to 100 nM	10 to 100 nM		100 to 1000 nM	10 to 100 nM	10 to 100 nM										
CCn1c(-c2cccnc2[C@H](C)OC)c2c3cc(ccc31)-c1cc(O)cc(c1)C[C@H](NC(=O)[C@H](C(C)C)N(C)C(=O)[C@H]1C[C@H]1F)C(=O)N1CCC[C@H](N1)C(=O)OCC(C)(C)C2 [Compound A162]		10 to 100 nM	100 to 1000 nM	10 to 100 nM	10 to 100 nM		10 to 100 nM	10 to 100 nM	10 to 100 nM	< 5000 nM									
CCn1c(-c2cccnc2[C@H](C)OC)c2c3cc(ccc31)-c1cc(O)cc(c1)C[C@H](NC(=O)C(C)Cc1ccncc1)C(=O)N1CCC[C@H](N1)C(=O)OCC(C)(C)C2 (stereo partly shown) [Compound A179]		100 to 1000 nM and 1000 to 10000 nM	1000 to 10000 nM	1000 to 10000 nM	100 to 1000 nM	1000 to 10000 nM	1000 to 10000 nM	100 to 1000 nM	100 to 1000 nM	< 5000 nM									
CCn1c(-c2cccnc2[C@H](C)OC)c2c3cc(ccc31)-c1cc(O)cc(c1)C[C@H](NC(=O)C13CCCC1C3(F)F)C(=O)N1CCC[C@H](N1)C(=O)OCC(C)(C)C2 (stereo partly shown) [Compound A180]	1000 to 10000 nM	1000 to 10000 nM	> 10000 nM	1000 to 10000 nM	1000 to 10000 nM	1000 to 10000 nM	1000 to 10000 nM	100 to 1000 nM	1000 to 10000 nM										
CCn1c(-c2cccnc2[C@H](C)OC)c2c3cc(ccc31)-c1cc(O)cc(c1)C[C@H](NS(=O)(=O)c1ccc(OC)cc1OC)C(=O)N1CCC[C@H](N1)C(=O)OCC(C)(C)C2 [Compound A198]											> 10000 nM	> 10000 nM	> 10000 nM	> 10000 nM	> 10000 nM	> 10000 nM	> 10000 nM	> 10000 nM	
CCn1c(-c2cccnc2[C@H](C)OC)c2c3cc(ccc31)-c1cc(O)cc(c1)C[C@H](NC(=O)N1CCOCC1)C(=O)N1CCC[C@H](N1)C(=O)OCC(C)(C)C2 [Compound A199]											> 10000 nM	1000 to 10000 nM	> 10000 nM	1000 to 10000 nM	1000 to 10000 nM		> 10000 nM	1000 to 10000 nM	1000 to 10000 nM
CCn1c(-c2cnccc2COC)c2c3cc(ccc31)-c1cc(O)cc(c1)C[C@H](NC(=O)[C@H](C(C)C)N(C)C(=O)N1CCOCC1)C(=O)N1CCC[C@H](N1)C(=O)OCC(C)(C)C2 [Compound A257]		100 to 1000 nM	1000 to 10000 nM	100 to 1000 nM	100 to 1000 nM	100 to 1000 nM	100 to 1000 nM	100 to 1000 nM	100 to 1000 nM	< 5000 nM									
CCn1c(-c2cccnc2[C@H](C)OC)c2c3cc(ccc31)-c1cccc(c1)C[C@H](NC(=O)[C@H](C(C)C)N(C)C(=O)[C@H]1OCC[C@H]1c1ccccc1)C(=O)N1CCC[C@H](N1)C(=O)OCC(C)(C)C2 [Compound A429]		> 10000 nM	> 10000 nM	1000 to 10000 nM	1000 to 10000 nM	> 10000 nM	> 10000 nM	> 10000 nM	1000 to 10000 nM										
